# Source: patent publication US20090274655A1, “2-CARBOXY THIOPHENE DERIVATIVES AS ANTI VIRAL AGENTS” (priority 2006, published 2009)
# What was measured:
# [1] = system: sub-genomic HCV NS3-NS5B replicon of genotype 1a (subline 1.19) in Huh-7 cells; test: 1a luciferase replicon assay (replicon luciferase cell based assay); parameters: species or system HCV genotype 1a; details: Hepatitis C virus, genotype 1a replicon, firefly luciferase reporter, 48 hours
# Description: (§1) Replicon Luciferase Cell Based Assay
# (§2) A 40 mM stock solution in DMSO of each test compound was further diluted into 50 μL of DMSO in the first row of a 96 well, V-bottom microplate, to give 100 times the top concentration of the required dilution series. Aliquots of 25 μL of DMSO were added to each well of the remaining rows, and doubling dilutions of compound were prepared by the serial transfer of 25 μL volumes from the first row onwards. A PlateMate™ robot was used to transfer 1 μL volumes from each dilution well into duplicate wells of a clear bottom, black walled, 96 well assay plate (COSTAR #3603). Control wells received 1 μL of DMSO alone. […]
# (§3) One tablet of Resazurin (Fisher #R/0040/79) was dissolved in 50 mL of phosphate buffered saline and 100 μL of solution added to all wells. The plate was re-incubated at 37° C. for a further 2-4 hours, wrapped in aluminium foil, before reading in a FLUOStar Optima at 595 nm. […] The plate was then read for luminescence on a TopCount® NXT™.
# (§4) Potency: The luminescence values from all compound-free wells containing cells were averaged to obtain a positive control value. The mean luminescence value from the compound-free wells that had received no cells was used to provide the negative (background) control value. […] The quantifiable and specific reduction of luciferase signal in the presence of a drug is a direct measure of replicon inhibition. […]
# [2] = system: sub-genomic HCV NS3-NS5B replicon of genotype 1b (ET subline) in Huh-7 cells; test: 1b luciferase replicon assay (replicon luciferase cell based assay); parameters: species or system HCV genotype 1b; details: Hepatitis C virus, Huh-7, 48 h, read-out: IC50 in the 1b luciferase replicon assay
# Description: as §1, §2, §3, §4
smiles,measurement,setting,value
"CC(C)N(c1cc(-c2ccc(NC(=O)c3cscn3)cc2)sc1C(=O)O)C(=O)[C@H]1CC[C@H](C)CC1 [Example 1, 3-[[(trans-4-Methylcyclohexyl)carbonyl](1-methylethyl)amino]-5-{4-[(1,3-thiazol-4-ylcarbonyl)amino]phenyl}-2-thiophenecarboxylic acid]",IC50,[1],< 100 nM
same,IC50,[2],< 100 nM
